Experimental data as given in ChEMBL document CHEMBL1201862, “PubChem BioAssay data set” (2004).
One block for each compound: values may come before it. Calls of active or inactive are those of the source.

What was measured:
[1] = target: Glycogen synthase kinase-3 beta (Homo sapiens, UniProt P49841); assay: Inhibition of Human GSK-3 beta Activity Measured in Biochemical System Using Microfluidics - 2063-05_Inhibitor_Dose_DryPowder_Activity_Set2. [Related pubchem assays (depositor defined):AID2709]
Chain of Glycogen synthase kinase-3 beta (P49841 whole entry): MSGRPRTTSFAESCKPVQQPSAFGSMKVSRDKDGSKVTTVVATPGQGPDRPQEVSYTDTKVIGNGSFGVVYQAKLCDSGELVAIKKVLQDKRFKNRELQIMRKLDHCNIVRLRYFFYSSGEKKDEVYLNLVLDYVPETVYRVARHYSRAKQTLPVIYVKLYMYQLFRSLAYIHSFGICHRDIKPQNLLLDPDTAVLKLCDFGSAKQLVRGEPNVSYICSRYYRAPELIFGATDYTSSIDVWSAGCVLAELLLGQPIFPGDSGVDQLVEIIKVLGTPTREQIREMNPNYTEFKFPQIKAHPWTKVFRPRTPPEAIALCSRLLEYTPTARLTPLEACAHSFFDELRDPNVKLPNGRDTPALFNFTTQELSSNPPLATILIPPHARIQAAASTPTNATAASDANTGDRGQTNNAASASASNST

[2] = target: Cyclin-dependent kinase 5/CDK5 activator 1 (Homo sapiens, UniProt Q00535); assay: human CDK5 activity blockade – biochemical, microfluidic mobility shift, dry powder, selectivity assay for GSK-3 alpha inhibitor project, dose response (AID 588430)
Chain of Cyclin-dependent kinase 5/CDK5 activator 1 (Q00535 whole entry): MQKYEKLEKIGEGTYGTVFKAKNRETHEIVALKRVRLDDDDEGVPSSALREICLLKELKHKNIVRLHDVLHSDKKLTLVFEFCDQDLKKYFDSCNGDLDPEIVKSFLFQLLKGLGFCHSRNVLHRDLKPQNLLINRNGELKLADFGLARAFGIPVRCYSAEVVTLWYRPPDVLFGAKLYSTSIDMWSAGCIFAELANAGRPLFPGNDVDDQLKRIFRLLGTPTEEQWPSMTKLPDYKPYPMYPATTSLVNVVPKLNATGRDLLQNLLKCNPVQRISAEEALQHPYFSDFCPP
Chain of Cyclin-dependent kinase 5/CDK5 activator 1 (Q15078 whole entry, further chain): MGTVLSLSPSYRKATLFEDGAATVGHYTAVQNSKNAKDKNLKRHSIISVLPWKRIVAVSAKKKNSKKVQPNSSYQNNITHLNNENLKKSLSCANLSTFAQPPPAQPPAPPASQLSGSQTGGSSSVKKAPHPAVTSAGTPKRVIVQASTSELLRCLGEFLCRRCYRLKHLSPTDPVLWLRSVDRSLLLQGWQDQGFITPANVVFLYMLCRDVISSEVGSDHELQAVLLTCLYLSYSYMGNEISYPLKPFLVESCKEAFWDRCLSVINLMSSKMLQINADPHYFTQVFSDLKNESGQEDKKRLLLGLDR

[3] = target: Glycogen synthase kinase-3 alpha (Homo sapiens, UniProt P49840); assay: Inhibition of Human GSK-3 alpha Activity Measured in Biochemical System Using Microfluidics - 2063-06_Inhibitor_Dose_DryPowder_Activity_Set2. [Related pubchem assays (depositor defined):AID2709]
Chain of Glycogen synthase kinase-3 alpha (P49840 whole entry): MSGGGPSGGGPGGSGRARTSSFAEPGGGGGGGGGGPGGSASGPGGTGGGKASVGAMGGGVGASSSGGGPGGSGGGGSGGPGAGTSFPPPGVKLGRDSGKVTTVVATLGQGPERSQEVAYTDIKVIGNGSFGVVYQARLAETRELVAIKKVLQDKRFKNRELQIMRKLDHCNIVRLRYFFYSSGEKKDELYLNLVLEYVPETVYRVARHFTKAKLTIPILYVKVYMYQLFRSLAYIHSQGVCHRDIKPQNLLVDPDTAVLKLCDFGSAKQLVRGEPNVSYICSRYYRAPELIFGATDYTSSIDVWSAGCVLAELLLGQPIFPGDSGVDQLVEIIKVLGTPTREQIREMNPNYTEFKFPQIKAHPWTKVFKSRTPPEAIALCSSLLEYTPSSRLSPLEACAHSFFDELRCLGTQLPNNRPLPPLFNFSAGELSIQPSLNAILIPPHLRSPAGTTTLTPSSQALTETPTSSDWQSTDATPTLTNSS

[4] = target: Protein disulfide-isomerase (Homo sapiens, UniProt P07237); assay: inhibition of PDI-driven insulin aggregation – biochemical, turbidity, absorbance, cherry-picked samples, dose response (AID 602350); assay type: functional
Chain of Protein disulfide-isomerase (P07237 whole entry): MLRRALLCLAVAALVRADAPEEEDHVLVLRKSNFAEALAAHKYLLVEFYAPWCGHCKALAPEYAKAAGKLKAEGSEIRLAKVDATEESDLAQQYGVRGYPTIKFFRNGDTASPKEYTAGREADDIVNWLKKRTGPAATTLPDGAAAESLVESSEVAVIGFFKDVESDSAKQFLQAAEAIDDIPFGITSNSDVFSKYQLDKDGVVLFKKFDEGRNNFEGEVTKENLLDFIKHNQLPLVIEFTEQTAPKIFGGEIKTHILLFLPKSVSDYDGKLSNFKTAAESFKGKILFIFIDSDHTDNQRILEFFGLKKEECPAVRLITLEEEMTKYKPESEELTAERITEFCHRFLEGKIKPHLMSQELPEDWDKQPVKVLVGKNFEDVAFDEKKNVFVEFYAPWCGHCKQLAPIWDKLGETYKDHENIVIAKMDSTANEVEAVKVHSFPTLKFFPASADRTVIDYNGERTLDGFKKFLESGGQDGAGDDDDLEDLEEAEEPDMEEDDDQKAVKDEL

[5] = target: Cyclin-dependent kinase 19 (Homo sapiens, UniProt Q9BWU1); assay: Navigating the Kinome. Panel member name: CDC2L6; assay type: functional
Chain of Cyclin-dependent kinase 19 (Q9BWU1 whole entry): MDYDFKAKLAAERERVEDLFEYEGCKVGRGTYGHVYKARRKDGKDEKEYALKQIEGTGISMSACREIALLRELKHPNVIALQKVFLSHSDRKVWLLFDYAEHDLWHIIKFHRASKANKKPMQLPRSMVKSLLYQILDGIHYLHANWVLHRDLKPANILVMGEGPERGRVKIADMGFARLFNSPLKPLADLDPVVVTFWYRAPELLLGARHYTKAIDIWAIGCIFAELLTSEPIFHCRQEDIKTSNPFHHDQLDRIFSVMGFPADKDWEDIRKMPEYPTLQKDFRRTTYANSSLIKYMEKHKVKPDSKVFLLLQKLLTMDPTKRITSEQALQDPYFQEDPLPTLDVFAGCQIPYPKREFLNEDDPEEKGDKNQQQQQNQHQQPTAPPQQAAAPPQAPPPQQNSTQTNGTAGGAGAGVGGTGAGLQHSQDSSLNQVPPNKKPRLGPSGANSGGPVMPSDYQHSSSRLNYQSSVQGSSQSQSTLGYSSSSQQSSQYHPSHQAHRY

[6] = target: ALK tyrosine kinase receptor (Homo sapiens, UniProt Q9UM73); assay type: functional;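 note: ALK tested as one member of a kinase panel screen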
Chain of ALK tyrosine kinase receptor (Q9UM73 whole entry): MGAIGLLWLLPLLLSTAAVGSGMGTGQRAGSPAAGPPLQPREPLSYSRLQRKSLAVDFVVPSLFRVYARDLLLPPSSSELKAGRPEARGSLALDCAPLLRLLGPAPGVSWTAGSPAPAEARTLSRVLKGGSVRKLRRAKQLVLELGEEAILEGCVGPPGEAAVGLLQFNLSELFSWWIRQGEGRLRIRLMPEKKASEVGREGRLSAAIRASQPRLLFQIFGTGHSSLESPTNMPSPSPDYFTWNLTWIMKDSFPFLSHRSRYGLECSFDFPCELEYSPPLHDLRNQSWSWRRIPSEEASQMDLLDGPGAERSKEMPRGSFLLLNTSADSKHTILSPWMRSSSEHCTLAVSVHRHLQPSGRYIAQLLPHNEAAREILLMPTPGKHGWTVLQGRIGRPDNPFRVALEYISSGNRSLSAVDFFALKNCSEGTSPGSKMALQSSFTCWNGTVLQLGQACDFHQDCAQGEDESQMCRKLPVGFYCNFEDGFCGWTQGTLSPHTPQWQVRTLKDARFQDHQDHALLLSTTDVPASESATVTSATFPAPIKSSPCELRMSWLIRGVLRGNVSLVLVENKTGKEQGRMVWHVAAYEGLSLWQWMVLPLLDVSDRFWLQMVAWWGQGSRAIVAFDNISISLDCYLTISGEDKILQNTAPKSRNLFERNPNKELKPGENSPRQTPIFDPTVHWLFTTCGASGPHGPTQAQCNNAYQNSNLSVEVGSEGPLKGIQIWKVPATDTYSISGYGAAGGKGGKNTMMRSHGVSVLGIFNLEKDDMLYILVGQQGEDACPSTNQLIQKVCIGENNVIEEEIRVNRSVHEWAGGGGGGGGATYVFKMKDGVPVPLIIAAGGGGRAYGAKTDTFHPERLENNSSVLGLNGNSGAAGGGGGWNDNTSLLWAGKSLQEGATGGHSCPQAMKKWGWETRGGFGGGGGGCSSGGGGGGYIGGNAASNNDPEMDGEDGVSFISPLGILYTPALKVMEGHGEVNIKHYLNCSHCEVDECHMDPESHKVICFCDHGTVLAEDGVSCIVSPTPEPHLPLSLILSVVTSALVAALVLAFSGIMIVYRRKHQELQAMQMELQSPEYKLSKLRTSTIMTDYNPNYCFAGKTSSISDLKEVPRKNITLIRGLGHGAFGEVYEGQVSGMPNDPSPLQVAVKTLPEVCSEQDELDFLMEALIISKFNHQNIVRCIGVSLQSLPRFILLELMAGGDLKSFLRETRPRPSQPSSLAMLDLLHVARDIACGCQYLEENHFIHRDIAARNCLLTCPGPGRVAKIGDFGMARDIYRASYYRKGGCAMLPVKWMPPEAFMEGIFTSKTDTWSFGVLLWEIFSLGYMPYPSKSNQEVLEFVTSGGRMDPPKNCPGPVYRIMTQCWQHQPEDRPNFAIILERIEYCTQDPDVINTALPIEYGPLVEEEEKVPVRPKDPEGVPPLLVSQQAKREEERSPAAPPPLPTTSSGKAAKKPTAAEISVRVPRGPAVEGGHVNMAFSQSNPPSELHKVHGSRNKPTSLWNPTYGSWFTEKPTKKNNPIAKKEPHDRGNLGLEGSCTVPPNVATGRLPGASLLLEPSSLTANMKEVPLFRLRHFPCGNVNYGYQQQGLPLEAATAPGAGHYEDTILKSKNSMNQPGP

[7] = target: T1, Sphingosine 1-phosphate receptor 4 (Homo sapiens, UniProt O95977); assay: Late-stage fluorescence-based dose-response cell-based counterscreen assay to identify agonists of the Sphingosine 1-Phosphate Receptor 3 (S1P3): Sphingosine 1-Phosphate Receptor 4 (S1P4) agonist assay.; assay type: functional
T1 sequence (O95977 whole entry): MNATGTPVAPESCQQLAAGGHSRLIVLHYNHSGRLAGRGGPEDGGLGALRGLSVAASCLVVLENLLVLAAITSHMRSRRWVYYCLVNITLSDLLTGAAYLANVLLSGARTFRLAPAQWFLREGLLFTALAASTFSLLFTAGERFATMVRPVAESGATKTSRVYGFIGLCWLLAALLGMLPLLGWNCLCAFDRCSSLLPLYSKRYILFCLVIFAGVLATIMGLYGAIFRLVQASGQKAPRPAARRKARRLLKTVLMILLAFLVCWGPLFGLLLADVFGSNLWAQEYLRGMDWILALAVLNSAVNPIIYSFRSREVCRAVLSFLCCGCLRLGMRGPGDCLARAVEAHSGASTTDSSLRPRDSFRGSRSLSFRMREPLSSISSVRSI

[8] = target: Sphingosine 1-phosphate receptor 2 (Homo sapiens, UniProt O95136); assay: Late-stage fluorescence-based dose-response cell-based counterscreen assay to identify agonists of the Sphingosine 1-Phosphate Receptor 3 (S1P3): Sphingosine 1-Phosphate Receptor 2 (S1P2) agonist assay.; assay type: functional
Chain of Sphingosine 1-phosphate receptor 2 (O95136 whole entry): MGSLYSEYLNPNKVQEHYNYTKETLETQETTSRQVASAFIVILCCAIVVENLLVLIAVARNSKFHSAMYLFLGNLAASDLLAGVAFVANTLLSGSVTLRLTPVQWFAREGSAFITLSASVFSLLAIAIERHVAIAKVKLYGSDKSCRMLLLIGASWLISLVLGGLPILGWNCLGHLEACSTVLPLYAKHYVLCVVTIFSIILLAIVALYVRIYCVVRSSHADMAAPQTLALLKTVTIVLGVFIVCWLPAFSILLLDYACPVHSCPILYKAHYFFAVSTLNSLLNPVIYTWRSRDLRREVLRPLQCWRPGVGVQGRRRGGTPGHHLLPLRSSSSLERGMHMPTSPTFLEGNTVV

[9] = target: T2, Apoptotic protease-activating factor 1 (Homo sapiens, UniProt O14727); assay: SAR analysis of small molecule inhibitors of Apaf-1 in a Fluorescent assay.; assay type: functional; conditions: read-out: IC50_Mean
T2 sequence (O14727 whole entry): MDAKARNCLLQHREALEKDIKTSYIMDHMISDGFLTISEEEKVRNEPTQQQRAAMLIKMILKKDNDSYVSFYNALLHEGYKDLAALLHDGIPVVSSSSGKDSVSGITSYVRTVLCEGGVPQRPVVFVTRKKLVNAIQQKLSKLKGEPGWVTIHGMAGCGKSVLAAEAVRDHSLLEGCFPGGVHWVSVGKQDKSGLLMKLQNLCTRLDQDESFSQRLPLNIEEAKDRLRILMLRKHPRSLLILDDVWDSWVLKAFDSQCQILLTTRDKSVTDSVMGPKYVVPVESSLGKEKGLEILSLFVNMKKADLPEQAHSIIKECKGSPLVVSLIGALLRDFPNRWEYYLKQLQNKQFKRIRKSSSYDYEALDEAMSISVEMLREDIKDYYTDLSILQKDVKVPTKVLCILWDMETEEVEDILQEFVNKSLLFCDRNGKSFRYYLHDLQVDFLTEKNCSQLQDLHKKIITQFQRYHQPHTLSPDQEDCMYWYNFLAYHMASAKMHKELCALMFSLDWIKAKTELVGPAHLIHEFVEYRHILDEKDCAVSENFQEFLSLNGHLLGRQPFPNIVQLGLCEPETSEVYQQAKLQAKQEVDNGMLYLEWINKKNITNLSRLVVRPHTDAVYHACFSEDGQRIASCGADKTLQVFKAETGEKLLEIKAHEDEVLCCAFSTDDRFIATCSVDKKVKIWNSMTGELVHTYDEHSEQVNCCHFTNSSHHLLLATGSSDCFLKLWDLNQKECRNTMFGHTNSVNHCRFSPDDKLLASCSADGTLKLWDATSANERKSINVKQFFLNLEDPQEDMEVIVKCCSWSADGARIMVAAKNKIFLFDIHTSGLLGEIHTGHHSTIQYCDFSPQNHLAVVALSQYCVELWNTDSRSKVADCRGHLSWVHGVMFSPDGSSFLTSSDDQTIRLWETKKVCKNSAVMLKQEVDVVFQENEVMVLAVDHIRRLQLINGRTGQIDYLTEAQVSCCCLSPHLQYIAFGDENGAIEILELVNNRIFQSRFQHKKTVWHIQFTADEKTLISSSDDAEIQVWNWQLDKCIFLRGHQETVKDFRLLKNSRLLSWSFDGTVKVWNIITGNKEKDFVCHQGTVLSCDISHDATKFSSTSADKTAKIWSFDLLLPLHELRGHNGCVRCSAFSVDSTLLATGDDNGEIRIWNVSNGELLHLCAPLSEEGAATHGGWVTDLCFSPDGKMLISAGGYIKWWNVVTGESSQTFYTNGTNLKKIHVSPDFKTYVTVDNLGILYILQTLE

AC50 [1]: 0.457 µM (active)
AC50 [2]: 40.6 µM (active)
AC50 [3]: 1.24 µM (active)
Structure (SMILES): CCCN(CCC)Cc1c(C(=O)N/N=C/c2ccoc2)nnn1-c1nonc1N

Ki [5]: 3.16 µM (active)
Ki [6]: 3.16 µM (active)
Structure (SMILES): CN(C)CCc1ccc(Nc2nccc(-c3c(-c4cccc(C(O)CO)c4)nc4ccccn34)n2)cc1 (centres undefined)

The remaining lines, values behind:

Structure (SMILES): Cc1noc(C)c1S(=O)(=O)Nc1ccc2c(c1)CC(=O)N([C@H](C)CO)C[C@H](C)[C@@H](CN(C)S(=O)(=O)c1ccc(F)cc1)O2
AC50 [4]: 19.5 µM (active)

Structure (SMILES): O=C(c1cc(-c2ccccc2)on1)N(C1CCCCC1)C1CCCC1
EC50 [7]: > 50 µM (inactive)
EC50 [8]: > 50 µM (inactive)

Structure (SMILES): Cn1cc(C(CC(=O)c2ccc(C(C)(C)C)cc2)C(=O)O)c2ccccc21 (centres undefined)
IC50 [9]: 90.5 µM (active)
